# Test results from the supplement of paper PMC13380429.
# Assays:
# Conditions in all cases: 72 h
# [1] = system: Caco-2; assay: cell viability relative to DMSO; higher = less toxic
# [2] = system: Calu-3; assay: as above
# [3] = system: HepG2; assay: as above
# [4] = system: U2OS; assay: as above
# [5] = system: Vero E6; assay: as above
# [6] = system: Caco-2; assay: relative viability EC50 (midpoint between 100% and the lowest measured viability); higher = less toxic
# [7] = system: Calu-3; assay: as above
# [8] = system: HepG2; assay: as above
# [9] = system: U2OS; assay: as above
# [10] = system: Vero E6; assay: as above
# [11] = system: Caco-2; assay: drug sensitivity score (DSS) for viability; higher = more toxic; extreme values may be limits of the assay
# [12] = system: Calu-3; assay: as above
# [13] = system: HepG2; assay: as above
# [14] = system: U2OS; assay: as above
# [15] = system: Vero E6; assay: as above
Structure (SMILES),cell viability ([1]; 1 nM),cell viability ([1]; 10 nM),cell viability ([1]; 100 nM),cell viability ([1]; 1000 nM),cell viability ([1]; 10000 nM),cell viability ([2]; 1 nM),cell viability ([2]; 10 nM),cell viability ([2]; 100 nM),cell viability ([2]; 1000 nM),cell viability ([2]; 10000 nM),cell viability ([3]; 1 nM),cell viability ([3]; 10 nM),cell viability ([3]; 100 nM),cell viability ([3]; 1000 nM),cell viability ([3]; 10000 nM),cell viability ([4]; 1 nM),cell viability ([4]; 10 nM),cell viability ([4]; 100 nM),cell viability ([4]; 1000 nM),cell viability ([4]; 10000 nM),cell viability ([5]; 1 nM),cell viability ([5]; 10 nM),cell viability ([5]; 100 nM),cell viability ([5]; 1000 nM),cell viability ([5]; 10000 nM),relative viability EC50 [6],relative viability EC50 [7],relative viability EC50 [8],relative viability EC50 [9],relative viability EC50 [10],drug sensitivity score [11],drug sensitivity score [12],drug sensitivity score [13],drug sensitivity score [14],drug sensitivity score [15]
COc1cc(OC)c(/C=C/S(=O)(=O)Cc2ccc(OC)c(OP(=O)(O)O)c2)c(OC)c1 [briciclib],106%,103%,45.1%,42%,42.9%,101%,108%,94.9%,65.2%,41%,113%,108%,56.1%,36%,38.7%,102%,104%,73.4%,23.7%,18.2%,95.9%,92.2%,23.6%,21.2%,26.9%,0.0392 µM,0.75 µM,0.0738 µM,0.161 µM,0.0246 µM,17.5,7.4,17,17.5,25.5
CCCCN1CCCCC1C(=O)Nc1c(C)cccc1C (stereo not given) [bupivacaine],85.3%,88.2%,71.6%,96.7%,82.9%,95.9%,101%,80.2%,99.1%,88.4%,100%,106%,92.7%,97.2%,103%,95.7%,96.7%,94.6%,103%,95.7%,103%,103%,104%,98.7%,99.6%,> 10 µM,> 10 µM,> 10 µM,> 10 µM,> 10 µM,0,0,0,0,0
CC(NC(C)(C)C)C(=O)c1cccc(Cl)c1 (stereo not given) [bupropion],90.3%,90.6%,86.4%,105%,91.6%,104%,96.3%,101%,106%,101%,100%,103%,103%,105%,95%,95.1%,96%,99%,94.4%,93.8%,107%,105%,102%,92.1%,81.7%,> 10 µM,> 10 µM,> 10 µM,> 10 µM,> 10 µM,0,0,0,0,1.3
Cn1nc(C(C)(C)C)cc1C(=O)N[C@@H](Cc1cccc(Cl)c1)C(=O)NCC#N [cathepsin-inhibitor-1],99.8%,99.3%,86.7%,93.5%,92.3%,103%,89.1%,105%,94.9%,91.8%,94%,103%,112%,90.8%,98.4%,97.7%,99.1%,92.8%,94.2%,90.9%,95%,99.3%,102%,96.2%,98.4%,> 10 µM,> 10 µM,> 10 µM,> 10 µM,> 10 µM,0,0,0,0,0
CCCCCCCCCCCCCCCC[n+]1ccccc1 [cetylpyridinium],103%,99%,101%,66.4%,16.5%,104%,99.9%,105%,84.3%,44.1%,106%,95.4%,89.2%,58.2%,14.6%,103%,102%,104%,80.9%,10.1%,96.2%,97.5%,98.1%,91.6%,19.2%,1.17 µM,1.46 µM,0.929 µM,1.68 µM,2.3 µM,9.1,5.4,9.8,8,5.9
NS(=O)(=O)c1cc2c(cc1Cl)N=CNS2(=O)=O [chlorothiazide],92.4%,99.8%,95.3%,91%,86.6%,85.8%,88.9%,103%,102%,96.6%,102%,102%,95.9%,97.8%,99%,98.1%,102%,96.6%,106%,99%,97.8%,103%,96.3%,96.8%,96.7%,> 10 µM,> 10 µM,> 10 µM,> 10 µM,> 10 µM,0.1,0,0,0,0
Cc1ccc2c(Cl)cc(Cl)c(O)c2n1 [chlorquinaldol],107%,91.3%,96.7%,91.4%,103%,92.4%,99.9%,84.2%,86.9%,108%,89.3%,95.5%,99.1%,84.4%,108%,96.8%,102%,97.8%,102%,100%,93.3%,88.9%,99.2%,86.6%,103%,> 10 µM,> 10 µM,> 10 µM,> 10 µM,> 10 µM,0,0,0,0,0
COc1ccc([C@]2(C#N)CC[C@@H](C(=O)O)CC2)cc1OC1CCCC1 [cilomilast],98.3%,91.3%,106%,106%,100%,97.8%,112%,102%,88.9%,95.9%,89.4%,93.6%,98.3%,97.2%,104%,103%,97.4%,99.7%,100%,100%,88.2%,98.7%,89.8%,95.9%,97.9%,> 10 µM,> 10 µM,> 10 µM,> 10 µM,> 10 µM,0,0.3,0,0,0
CCCCOc1cc(C(=O)NCCN(CC)CC)c2ccccc2n1 [cinchocaine],99.9%,95%,103%,94.2%,88.1%,96.6%,94.4%,97.4%,94.3%,92.3%,97.2%,107%,102%,94.7%,89.2%,100%,98.2%,101%,98.1%,101%,103%,104%,97.8%,103%,94.1%,> 10 µM,> 10 µM,> 10 µM,> 10 µM,> 10 µM,0.3,0,0.1,0,0
CN(CCOP(=O)(O)O)C(=N)N [creatinol-phosphate],102%,99.5%,93.6%,101%,90.7%,104%,94.2%,105%,92.8%,98.5%,88.7%,94.6%,101%,105%,92.4%,92.5%,95.6%,94.7%,93.3%,93.4%,103%,97.8%,98.4%,104%,97.8%,> 10 µM,> 10 µM,> 10 µM,> 10 µM,> 10 µM,0,0,0,0,0
C[C@H]1COC2=C1C(=O)C(=O)c1c2ccc2c1CCCC2(C)C [cryptotanshinone],97.2%,93%,98.1%,102%,85.4%,111%,111%,99.1%,107%,108%,97.3%,93.3%,97.2%,98.9%,98%,101%,103%,100%,101%,94.4%,95%,102%,103%,98.5%,100%,> 10 µM,> 10 µM,> 10 µM,> 10 µM,> 10 µM,0.1,0,0,0,0
NS(=O)(=O)c1cc2c(cc1Cl)NC(CC1CCCC1)NS2(=O)=O (stereo not given) [cyclopenthiazide],102%,106%,90.4%,98.6%,90.4%,96.8%,105%,97.6%,97.7%,96.4%,111%,103%,101%,99.1%,102%,100%,104%,98.8%,107%,96.6%,102%,91%,98.9%,94.9%,99.9%,> 10 µM,> 10 µM,> 10 µM,> 10 µM,> 10 µM,0,0,0,0,0
Cc1c(F)cccc1NC(=O)Nc1ccc(Cl)c(S(=O)(=O)[C@H]2CCCNC2)c1O [danirixin],99.3%,104%,93.4%,99.4%,95.9%,84.6%,88.3%,91.8%,93.1%,95.6%,94.8%,93.1%,103%,94.7%,106%,99%,104%,95.4%,98.8%,98.8%,106%,106%,106%,98.2%,100%,> 10 µM,> 10 µM,> 10 µM,> 10 µM,> 10 µM,0,0,0,0,0
COc1cc(OC)nc(O[C@H](C(=O)O)C(OC)(c2ccccc2)c2ccccc2)n1 [darusentan],102%,96.9%,97.3%,95.1%,102%,111%,93.3%,99.1%,101%,101%,98.2%,98.8%,93.6%,95.5%,91.3%,97.1%,102%,91%,96.9%,94.6%,96.5%,98.8%,97.2%,92.3%,98.6%,> 10 µM,> 10 µM,> 10 µM,> 10 µM,> 10 µM,0,0,0,0,0
